Measurements from patent publication US8877949B2, “Furo[3,2-g]chromene compounds and uses thereof” (Shenyang Pharmaceutical University, priority 2010, dated 2014).

Key:
[1] = tested on: uteri; experiment: Uterotrophic/anti-uterotrophic assay in juvenile rats (4 days); format: in vivo, rat; conditions: immature female Sprague-Dawley rats, i.p., dose not stated, n = 2
Description: The estrogen and anti-estrogen properties of the compound can be tested in the uterotrophic assay (4 days) in juvenile rats. Immature rats (Sprague-Dawley rats) (female, 18 days old) were divided into 6 test groups. All these animals were i.p. injected with 10 μg of the compound, 100 μg of the compound per day, (100 μg of the compound and 1 μg 176 estradiol), so as to investigate anti-estrogens; and treated with 1 μg of 176 estradiol, wherein 50% DMSO/50% saline was used as injection media. These animals were sacrificed by CO2 asphyxiation on Day 4. Their uteri were extracted, and excessive fats and all liquid were removed. Then the wet weight of the uteri was measured. A part of one corner of the uterus was separated and analyzed histologically. The rest part was used to isolate whole RNA, so as to evaluate the expression of complement component 3 gene.

[2] = tested on: LDL cell-mediated oxidation; experiment: Inhibition of LDL oxidation, antioxidant activity (TBARS); format: cell-based, Swine; conditions: Sus scrofa; compound 5 μM, 12.5 μg/mL LDL, 37° C., 4 hours; n = 2; read-out: Oxidation inhibition rate
Source text: Swine aortas were obtained from a slaughterhouse, washed, and then transferred into cold PBS. Epithelial cells were collected from the aortas. Particularly, in order to collect the epithelial cells, intercostal blood vessel of the aorta was knotted, and one end of the aorta was clamped with a forceps. Fresh 0.2% collagenase (Sigma Type I) which had been filtered for sterilization was placed into the blood vessel, and another end of the blood vessel was clamped with a forceps so as to form a closed system. The aortas were cultured at 37° C. for 15-20 min, then collagenase solution was collected and centrifuged for 5 min. The resultant precipitate was resuspended in 7 mL epithelial cell medium (i.e. a DMEM/Ham'S F12 medium without phenolsulfonphthalein but supplemented with carbon stripped FBS (5%)), then seeded in a 100 mm dish and cultured at 37° C., 5% CO2. Twenty minutes later, the cells were rinsed with PBS, and a fresh medium was added. The above process was repeated for 24 hours. After about one week, the cells were confluent. Usually, these epithelial cells were fed twice per week, and seeded with a ratio of 1:7 after the action of trypsin during confluence. In the case that the compound (5 μM) to be evaluated existed, 12.5 μg/mL LDL cell-mediated oxidation was carried out at 37° C. for 4 hours. The result was expressed as the percentage of oxidation inhibition, which was determined by analyzing free aldehyde by the TBARS (Thiobarbituric acid reactive substances) method.

[3] = tested on: MCF-7 cells or BG-1 cells; experiment: Effect on the proliferation of breast cancer cells (MCF-7 or BG-1 cells in nude mice); format: in vivo; conditions: Mus musculus; n = 2
Description: Using standard pharmacological experimental methods easily found in reference documents, the capabilities of the inventive compounds to treat and inhibit different types of malignant tumors or over-proliferation diseases can be evaluated.
Spayed athymic nu/nu (nude) mice were used. One day before the injection of tumor cells, a release-controlled pill containing 0.36-1.7 mg of β estradiol (60- or 90-day release) or a placebo was implanted into the animal. The pill was introduced into the endo-sculpture zone subcutaneously using a 10-scaled precise rotor. Next, 1×10^7 MCF-7 cells or 1×10^7 BG-1 cells were injected into breast tissues of the mice subcutaneously. The cells were mixed with matrigel with a same volume, and the latter was a liquid preparation of basilar membrane substrate, so as to facilitate tumor construction. One day after the implantation of the tumor cells (i.e. an inhibition protocol), or after the tumor had reached a certain volume (i.e. a treatment protocol), the tested compounds could be evaluated through administration. The saline containing the compound in a 1% Tween-80 vehicle was administered intraperitoneally or orally every day. The volumes of the tumors were evaluated every 3 or 7 days.

[4] = tested on: Ovarian Cancer Cells SKOV3; experiment: Effect on the proliferation of ovarian cancer cells SKOV3 (MTT); format: cell-based; conditions: Homo sapiens, SK-OV-3, n = 3
Description: Cells in the logarithmic growth phase were digested with trypsin, added to a 96-well plate, in a density of 6×10^3 cells/well, and cultured in a 37° C., 5% CO2 incubator. The next day, the plated was transferred to and kept in a 4° C. incubator for 1 h after the adherence of most cells, so as to achieve synchronized growth of the cells. The supernatant was sucked out, and a RPMI 1640 medium containing 10% fetal calf serum (FCS) was added, 200 μL/well. The cells were grouped according to the design of the experiment. The injectable solution of the compound prepared with sterile physiological saline was added to the 96 wells, 200 μL/well, so that the concentrate of the medicament in each well were 1 mg/mL, 2 mg/mL and 5 mg/mL, respectively. A concentration of 0 mg/mL was used as a negative control group. After subsequent cultivation for 24, 48, or 72 h, 20 μL MTT solution (with a concentration of 5 mg/mL) was added to each well, respectively. The plate was shaken gently, returned to the incubator and incubated for another 4 h. Then the supernatant was sucked out completely, and 200 μL of dimethyl sulfoxide was added to each well. The plate was shaken for 5-10 min on a shaker. The absorption (A=580) of each well at a wavelength of 580 nm was measured using a microplate reader. The A=580 value was proportional to the number of live cells.

[5] = tested on: Osteosarcoma Cells U2OS-EGFP-4A12G; experiment: Effect on the proliferation of osteosarcoma cells U2OS-EGFP-4A12G (MTT); format: cell-based; conditions: n = 3
Description: Cells in the logarithmic growth phase were digested with trypsin, counted with trypan blue, and prepared into a cellular suspension with a density of 1×10^4 cells/mL. The suspension was seeded in a 96-well plate, 200 μL/well, about 2×10^3 cells/well, and pre-cultured for 24 h. […] A concentration of 0 mg/mL was used as a negative control group. After subsequent cultivatation for 0 h, 12 h, 24 h or 48 h, 20 μL MTT solution (5 mg/mL) was added to each well. The cultivation was terminated after another 4 h incubation. The supernatant in each well was sucked out carefully, and 150 μL of dimethyl sulfoxide (DMSO) was added to each well. The plate was shaken for 10 min, so that formazan was dissolved thoroughly. The absorption value (A value) of each well was measured using an enzyme linked immunosorbent detector, at a selected wavelength of 490 nm. The measurement was repeated for 5 times.

| Compound | percentage of weight gain of uteri [1] [%] | inhibition at 5 µM [2] [%] | IC50 [3] [µM] | IC50 [4] [µM] | IC50 [5] [µM] |
| --- | --- | --- | --- | --- | --- |
| O=C(c1ccc(OCC(=O)N2CCOCC2)cc1)c1oc2cc3c(cc2c1-c1ccc(O)cc1)CCCO3 [2-[4-(morpholine-2-oxo-ethoxy)benzoyl]-3-(4-hydroxyphenyl)-6,7-dihydrogen-5H-furo[3,2-g]chromene] | 9.8 | 12.4 | 46.7 |  |  |
| CCN(CC)CCOc1ccc(C(=O)c2oc3cc4c(cc3c2-c2ccc(O)cc2)CCCO4)cc1 [Example 56, 2-[4-(diethylaminoethoxy)benzoyl]-3-(4-hydroxyphenyl)-6,7-dihydrogen-5H-furo[3,2-g]chromene] | 12.2 | 5.1 | 22.1 | 17.9 | 14.9 |
| CN(C)CCOc1ccc(C(=O)c2oc3cc4c(cc3c2-c2ccc(O)cc2)CCCO4)cc1 [Example 58, 2-[4-(dimethylaminoethoxy)benzoyl]-3-(4-hydroxyphenyl)-6,7-dihydrogen-5H-furo[3,2-g]chromene] | 0.6 | 6.8 | 4.6 |  |  |
| O=C(c1ccc(OCC(=O)N2CCCCC2)cc1)c1oc2cc3c(cc2c1-c1ccc(O)cc1)CCCO3 [Example 60, 2-[4-(piperidine-2-oxo-ethoxy)benzoyl]-3-(4-hydroxyphenyl)-6,7-dihydrogen-5H-furo[3,2-g]chromene] | 8.7 | 22.6 | 11.5 |  |  |
| CCN(CC)C(=O)COc1ccc(C(=O)c2oc3cc4c(cc3c2-c2ccc(O)cc2)CCCO4)cc1 [Example 62, 2-[4-(diethylamino-2-oxo-ethoxy)benzoyl]-3-(4-hydroxyphenyl)-6,7-dihydrogen-5H-furo[3,2-g]chromene] | 38.8 | 36.8 | 25.2 |  |  |
| CN(C)C(=O)COc1ccc(C(=O)c2oc3cc4c(cc3c2-c2ccc(O)cc2)CCCO4)cc1 [Example 64, 2-[4-(dimethylamino-2-oxo-ethoxy)benzoyl]-3-(4-hydroxyphenyl)-6,7-dihydrogen-5H-furo[3,2-g]chromene] | 26.2 | 44.9 | 5.6 |  |  |
